{"source": "patent US12545653B2", "about": "“Compound as PPAR agonist and application thereof” (USA Elixiria Biotech Inc., priority 2019, dated 2026)", "key": {"PPARγ": {"target": "T1, PPARγ (Homo sapiens, UniProt P37231)", "T1 construct": "expressed in transfected cells; host or cells: HEK 293 T cells", "T1 sequence (P37231 1-505)": "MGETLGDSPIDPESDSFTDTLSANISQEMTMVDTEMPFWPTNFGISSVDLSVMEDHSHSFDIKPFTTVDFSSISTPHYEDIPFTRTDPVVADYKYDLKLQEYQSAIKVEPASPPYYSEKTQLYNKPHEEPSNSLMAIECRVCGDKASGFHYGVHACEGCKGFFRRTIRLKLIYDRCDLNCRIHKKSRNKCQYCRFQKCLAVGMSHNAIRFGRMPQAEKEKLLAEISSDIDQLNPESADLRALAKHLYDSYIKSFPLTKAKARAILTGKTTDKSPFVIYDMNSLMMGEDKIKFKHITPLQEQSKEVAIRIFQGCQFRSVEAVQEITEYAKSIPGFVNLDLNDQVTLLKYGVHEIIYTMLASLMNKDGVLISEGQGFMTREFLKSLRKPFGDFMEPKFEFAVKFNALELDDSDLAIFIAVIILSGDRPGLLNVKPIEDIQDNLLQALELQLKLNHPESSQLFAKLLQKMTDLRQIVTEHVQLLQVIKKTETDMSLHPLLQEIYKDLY", "assay": "In vitro transcriptional activity of PPARγ gene (PPRE-luciferase reporter, HEK 293 T cells)", "format": "cell-based", "conditions": "HEK 293 T cells transfected with PPARγ expression and PPRE-luc plasmids, 21 hours; read-out: EC50 of PPARγ gene activation"}, "APP/PS1 transgenic mice": {"tested_on": "APP/PS1 transgenic mice", "assay": "Alzheimer's disease model, eight-arm radial water maze and brain gene expression", "format": "in vivo, mouse", "conditions": "for number of errors in water maze on the third day: 5 on the first day"}, "db−/db− mice": {"tested_on": "db−/db− mice", "assay": "Diabetic peripheral neuropathy model, Von Frey threshold, sciatic nerve ROS and MDA", "format": "in vivo, mouse", "conditions": "in food 10 mg/kg body weight/day (pregabalin 30 mg/kg body weight/day); for level of MDA in the sciatic nerve after 10 week treatment / level of mitochondrial ROS in the sciatic nerve after 10 week treatment: compared with healthy control group; for mechanical pain threshold after 10 week treatment: compared with normal control group", "procedure": "Male 5-6 week-old male db^−/db^− mice were used in the experiment, and their normoglycemic heterozygous littermates were used as controls. db^−/db^− is a commonly used type 2 diabetes animal model. The compounds was dissolved in DMSO and mixed into food pellets. The animals were given ad libitum access to the pellets, beginning from 8 to 9 weeks of age for 10 weeks. […] The method for detecting mice hindlimb hypersensitivity is performed using Von Frey filaments. […] The difference is significant with P<0.05. The increase of mitochondrial reactive oxygen species (ROS) in the sciatic nerve of mice, which in turn leads to the increase of intracellular malondialdehyde (MDA), is the etiology of this type of neuropathic pain. The efficacy of compound to treat the root cause of the disease was evaluated by measurement of the levels of MDA and mitochondrial ROS from the sciatic nerves."}, "[1]": {"conditions": "10 mg/kg body weight/day, 30 days, RT-PCR"}, "[2]": {"conditions": "30 days in food, 10 mg/kg body weight/day (donepezil 3 mg/kg body weight/day)"}}, "note": "“And” between values parts separate entries of the source, which are not always exact repeats. Equal entries are not always repeated."}
{"smiles": "CCc1ccc(CC/C=C/c2ccc3c(c2)C(=O)CC3)cc1", "note": "[ELB00824, (E)-6-(4-(4-ethylphenyl)but-1-en-1-yl)-2,3-dihydro-1H-inden-1-one]", "values": [{"measurement": "EC50", "setting": "PPARγ", "result": "< 6.4 µM and 4.7 µM"}, {"measurement": "expression level of Bcl-xl gene in cerebral cortex and hippocampus compared with disease control group", "setting": "APP/PS1 transgenic mice; [1]", "result": "doubled"}, {"measurement": "expression level of GluN2B gene in cerebral cortex and hippocampus compared with disease control group", "setting": "APP/PS1 transgenic mice; [1]", "result": "doubled"}, {"measurement": "expression level of Gng11 gene in cerebral cortex and hippocampus compared with disease control group", "setting": "APP/PS1 transgenic mice; [1]", "result": "tripled"}, {"measurement": "expression level of MnSOD gene in cerebral cortex and hippocampus compared with disease control group", "setting": "APP/PS1 transgenic mice; [1]", "result": "tripled or quadrupled"}, {"measurement": "expression level of Prx-2 gene in cerebral cortex and hippocampus compared with disease control group", "setting": "APP/PS1 transgenic mice; [1]", "result": "tripled or quadrupled"}, {"measurement": "expression level of klotho gene in cerebral cortex and hippocampus compared with disease control group", "setting": "APP/PS1 transgenic mice; [1]", "result": 9, "unit": "folds"}, {"measurement": "number of errors in water maze on the third day", "setting": "APP/PS1 transgenic mice; [2]", "result": "~1"}, {"measurement": "reduction in the number of errors (reference memory), third day compared with first day", "setting": "APP/PS1 transgenic mice; 30 days in food, 10 mg/kg body weight/day (donepezil 3 mg/kg body weight/day), eight-arm water maze", "result": "significant"}, {"measurement": "level of MDA in the sciatic nerve after 10 week treatment", "setting": "db−/db− mice", "result": "no difference"}, {"measurement": "level of mitochondrial ROS in the sciatic nerve after 10 week treatment", "setting": "db−/db− mice", "result": "no difference"}, {"measurement": "mechanical pain threshold after 10 week treatment", "setting": "db−/db− mice", "result": "no difference"}]}
{"smiles": "CCc1ccc(CC/C=C/c2ccc3c(c2)OCCC3=O)cc1", "note": "[ELB001045, (E)-7-(4-(4-ethylphenyl)but-1-en-1-yl)chroman-4-one]", "values": [{"measurement": "EC50", "setting": "PPARγ", "result": "< 6.4 µM and 3.5 µM"}, {"measurement": "number of errors in water maze on the third day", "setting": "APP/PS1 transgenic mice; [2]", "result": "comparable to that of ELB00824"}, {"measurement": "level of MDA in the sciatic nerve after 10 week treatment", "setting": "db−/db− mice", "result": "reduced"}, {"measurement": "level of mitochondrial ROS in the sciatic nerve after 10 week treatment", "setting": "db−/db− mice", "result": "reduced"}, {"measurement": "mechanical pain threshold after 10 week treatment", "setting": "db−/db− mice", "result": "significantly improved"}]}
{"smiles": "CCc1ccc(CC/C=C/c2ccc3c(c2)C(=O)COC3)cc1", "note": "[ELB001046, (E)-6-(4-(4-ethylphenyl)but-1-en-1-yl)isochroman-4-one]", "values": [{"measurement": "EC50", "setting": "PPARγ", "result": "< 6.4", "unit": "µM"}, {"measurement": "number of errors in water maze on the third day", "setting": "APP/PS1 transgenic mice; [2]", "result": "comparable to that of ELB00824"}, {"measurement": "level of MDA in the sciatic nerve after 10 week treatment", "setting": "db−/db− mice", "result": "reduced"}, {"measurement": "level of mitochondrial ROS in the sciatic nerve after 10 week treatment", "setting": "db−/db− mice", "result": "reduced"}, {"measurement": "mechanical pain threshold after 10 week treatment", "setting": "db−/db− mice", "result": "significantly improved"}]}
{"smiles": "CCc1ccc(OC/C=C/c2ccc3c(c2)C(=O)CC3)cc1", "note": "[ELB001115, (E)-6-(3-(4-ethylphenoxy)prop-1-en-1-yl)-2,3-dihydro-1H-inden-1-one]", "values": [{"measurement": "EC50", "setting": "PPARγ", "result": "< 6.4 µM and 4.8 µM"}, {"measurement": "number of errors in water maze on the third day", "setting": "APP/PS1 transgenic mice; [2]", "result": "comparable to that of ELB00824"}, {"measurement": "level of MDA in the sciatic nerve after 10 week treatment", "setting": "db−/db− mice", "result": "reduced"}, {"measurement": "level of mitochondrial ROS in the sciatic nerve after 10 week treatment", "setting": "db−/db− mice", "result": "reduced"}, {"measurement": "mechanical pain threshold after 10 week treatment", "setting": "db−/db− mice", "result": "significantly improved"}]}
{"smiles": "COc1ccc(CC/C=C/c2ccc3c(c2)C(=O)CC3)cc1", "note": "[ELB001116, (E)-6-(4-(4-methoxyphenyl)but-1-en-1-yl)-2,3-dihydro-1H-inden-1-one]", "values": [{"measurement": "EC50", "setting": "PPARγ", "result": "< 6.4", "unit": "µM"}, {"measurement": "number of errors in water maze on the third day", "setting": "APP/PS1 transgenic mice; [2]", "result": "comparable to that of ELB00824"}, {"measurement": "level of MDA in the sciatic nerve after 10 week treatment", "setting": "db−/db− mice", "result": "no difference"}, {"measurement": "level of mitochondrial ROS in the sciatic nerve after 10 week treatment", "setting": "db−/db− mice", "result": "no difference"}, {"measurement": "mechanical pain threshold after 10 week treatment", "setting": "db−/db− mice", "result": "no difference"}]}
{"smiles": "CCc1ccc(CC/C=C/c2ccc3c(c2)C(=O)CC3)nc1", "note": "[ELB001125, (E)-6-(4-(5-ethylpyridin-2-yl)but-1-en-1-yl)-2,3-dihydro-1H-inden-1-one]", "values": [{"measurement": "EC50", "setting": "PPARγ", "result": "< 6.4", "unit": "µM"}, {"measurement": "number of errors in water maze on the third day", "setting": "APP/PS1 transgenic mice; [2]", "result": "comparable to that of ELB00824"}, {"measurement": "level of MDA in the sciatic nerve after 10 week treatment", "setting": "db−/db− mice", "result": "reduced"}, {"measurement": "level of mitochondrial ROS in the sciatic nerve after 10 week treatment", "setting": "db−/db− mice", "result": "reduced"}, {"measurement": "mechanical pain threshold after 10 week treatment", "setting": "db−/db− mice", "result": "significantly improved"}]}
